For orientation: IC50 means the concentration at which inhibition is half-maximal.

The text below walks through data of paper PMC11374673, “Discovery of isoquinoline sulfonamides as allosteric gyrase inhibitors with activity against fluoroquinolone-resistant bacteria” (Nature Chemistry, 2024).

Values after ≈ are worked out from the molar mass of the structure shown. Values joined by “and” are separate entries in the source; they are usually repeats but may differ in a detail not shown here. Equal values may be shown once. Read-outs that look alike come from different tables or passages of the source. Some results are limits rather than exact numbers.

The test system of experiment [1] is E. coli W3110. Briefly: MIC by broth microdilution. The class given is cell-based, Escherichia coli. An outline of the steps: (§1)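 Broth microdilution in CAMHB: twofold compound series inoculated with 100-fold-diluted bacteria from exponential growth (OD600 0.5, 37 °C); kanamycin 50 µg ml^−1 added for Keio collection strains. Overnight incubation, 37 °C, 600 r.p.m. shaking.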
Background: Dilution methods test growth across graded concentrations, often in twofold steps.

Experiment [2] relates to 60-resistant (60-r) isolates of E. coli W3110. Briefly: microbe, parasite or virus in culture. Format: cell-based, Escherichia coli. Here is the method:
(§2) MIC was determined by broth microdilution. Single-colony cultures were grown to exponential phase (OD600 of 0.5) aerobically at 37 °C. In case of strains from the Keio collection, 50 µg ml^−1 kanamycin was supplemented to the media to ascertain a homogeneous population. The bacterial suspensions were diluted 100-fold in CAMHB and 50 µl was added to a twofold serial dilution series of test compounds (50 µl per well) in polypropylene 96-well microtitre plates to reach a volume of 100 µl. The plates were sealed with breathable membranes and incubated overnight at 37 °C with constant shaking (600 r.p.m.). The MIC was determined as the lowest concentration at which no visible bacterial growth was observed as compared with the inoculum controls from the median of a minimum of triplicates.
The plates were incubated at 37 °C and checked for growth after 24 and 48 h. […] Nine colonies with an increased MIC were selected for further analysis and stored as glycerol stocks.

For experiment [3], the system named is HepG2. The experiment in a line: Cytotoxicity assay (MTT). The class given is cell-based, human. The conditions noted are these: Homo sapiens, HepG2, 24 h, MTT, 24 h.
The subject of experiment [4] is HEK293T. Briefly: Cytotoxicity assay (MTT). The class given is cell-based, human. The conditions noted are these: Homo sapiens, HEK-293T, 24 h, MTT. An outline of the steps:
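HEK293T cells, maintained at 37 °C and 7% CO2 in Dulbecco’s modified Eagle medium with GlutaMax, antibiotics and serum, were plated in clear 96-well plates in 100 µl medium containing 1% fetal bovine serum and left 24 h to attach. After 24 h compound exposure, MTT (0.40 mg ml^−1) was added for 2 h. Formazan was dissolved in 100 µl DMSO and absorbance measured at 570 nm. Background-corrected IC50 values came from variable-slope non-linear fits.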

Experiment [5] has as its system S. aureus ATCC 29213 / ATCC BAA1717. The experiment in a line: MIC by broth microdilution. The class given is cell-based. The conditions noted are these: Staphylococcus aureus. Here is the method:
as §2

Experiment [6] concerns P. aeruginosa ATCC 27853. The experiment in a line: MIC by broth microdilution. The class given is cell-based. The conditions noted are these: Pseudomonas aeruginosa, ATCC27853; read-out: MIC P. aeruginosa ATCC 27853. As for the experimental part: as §2
Experiment [7] relates to A. baumannii ATCC BAA747. Briefly: MIC by broth microdilution. The conditions noted are these: Acinetobacter baumannii, ATCCBAA747; read-out: MIC A. baumannii ATCC BAA747. The class given is cell-based. Here is the method:
as §2

Experiment [8] concerns K. pneumoniae ATCC 29665. The experiment in a line: MIC by broth microdilution. The class given is cell-based, Klebsiella pneumoniae. The conditions noted are these: Klebsiella pneumoniae, ATCC29665, read-out: MIC K. pneumoniae ATCC 29665. An outline of the steps: as §1
Experiment [9] has as its system E. coli ATCC 25922. Briefly: MIC by broth microdilution. Format: cell-based. The conditions noted are these: Escherichia coli, ATCC25922; read-out: MIC E. coli ATCC 25922. Here is the method:
as §2, with “r.p.m.).” for “r.p.m.). The MIC was determined as the lowest concentration at which no visible bacterial growth was observed as compared with the inoculum controls from the median of a minimum of triplicates.”

The test system of experiment [10] is E. coli W3110. The experiment in a line: H-89 derivatives rescreen, 50 µM. The conditions noted are these: Escherichia coli, H-89 derivative rescreen, highest 50 µM. The class given is cell-based. As for the experimental part:
From glycerol stocks, E. coli W3110 was cultured on blood agar plates (PB5039A, Thermo Scientific) by overnight (18 ± 2 h) aerobic incubation at 37 °C. A single colony was transferred to tryptic soy broth (TSB, 02-200-500, Scharlab). The cultures were grown to exponential phase (OD600 of 0.5) at 37 °C. The bacterial suspensions were diluted 200-fold in cation-adjusted Mueller–Hinton broth (CAMHB) and 99 µl was added to a library of test compounds (1 µl 10 mM DMSO stock, per well in technical duplicates) in polypropylene 96-well microtitre plates to reach a volume of 100 µl and a final concentration of 100 µM for each test compound and a maximum of 1% DMSO. […] Screening hits were selected from the wells where no visible bacterial growth was observed, as compared with the inoculum controls containing 1% DMSO. The follow-up screen of H-89 derivatives was performed under similar conditions with a final concentration of 50 µM.

Experiment [11] deals with E. coli BW25113 and single-gene knockouts. Briefly: MIC on E. coli strains of the Keio collection. The conditions noted are these: Escherichia coli, BW25113, read-out: MIC E. coli BW25113, parent strain. The class given is cell-based, Escherichia coli. Here is the method:
as §2

The subject of experiment [12] is E. coli W3110. Briefly: Time-kill assay.
Description: From glycerol stocks, bacterial strains were cultured on blood agar plates by overnight incubation at 37 °C. Subsequently, a single colony was cultured in TSB overnight at 37 °C. The culture was diluted 100-fold in fresh CAMHB and grown until early exponential phase (OD600 of 0.25) followed by 100-fold dilution in media. The culture was split in separate culture tubes containing 2 ml. […] The supernatant was discarded and pellets were washed once with filter-sterilized PBS, then resuspended in an equal volume of fresh buffer and samples were tenfold serially diluted until a 10^5 dilution. Then, 10 µl of the appropriate dilutions were inoculated on LB agar plates in technical duplicates, subsequently allowed to evaporate and incubated at 37 °C for 18 h. The colonies were counted and used to calculate the colony forming unit (c.f.u.) per ml remaining in the original culture by taking the dilution factors into account. The experiment was performed in biological duplicates.
Setting [13] is: Escherichia coli, W3110, read-out: MIC E. coli W3110.
Where [14] appears, read: Escherichia coli, E. coli W3110 60-r1.
Setting [15] is: Escherichia coli, E. coli W3110 60-r3.
The mark [16] stands for this setting: Escherichia coli, E. coli W3110 60-r6.
[17] abbreviates: WT, broth microdilution, read-out: MIC E. coli W3110.

Regarding `CC(C)(O/N=C(\C(=O)N[C@@H]1C(=O)N2C(C(=O)[O-])=C(C[n+]3ccccc3)CS[C@H]12)c1csc(N)n1)C(=O)O` [Ceftazidime], the MIC in experiment [1] (Escherichia coli, W3110) is 0.4 µg/mL; in [1] (setting [13]), 0.75 µM; in experiment [2] (setting [14]) it was 0.375 µM and 0.2 µg/mL; in experiment [2] (setting [15]), 0.75 µM and 0.4 µg/mL; in [2] (setting [16]), 0.75 µM and 0.4 µg/mL.

Take `O=C(N[C@H](CO)[C@H](O)c1ccc([N+](=O)[O-])cc1)C(Cl)Cl` [Chloramphenicol]: the MIC in [1] (Escherichia coli, W3110) was 4 µg/mL; in experiment [1] (setting [13]), 12.4 µM; in experiment [2] (setting [14]), 12.4 µM and 4 µg/mL; in experiment [2] (setting [15]), 12.4 µM and 4 µg/mL; in experiment [2] (setting [16]) it was 12.4 µM and 4 µg/mL.

As for `O=S(=O)(NCCNCc1ccc(-c2cccnc2)cc1)c1cccc2cnccc12` [Compound 1], the MIC in experiment [1] (Escherichia coli, W3110, WT, broth microdilution, read-out: MIC E. coli W3110) was 6.25 µM; in experiment [1] (Escherichia coli, W3110, follow-up of the 12 library hits, read-out: MIC E. coli), 6.25 µM; in experiment [1] (Escherichia coli, W3110, read-out: MIC E. coli) it was 2.6 µg/mL; in [5] (read-out: MIC S. aureus ATCC 29213), above 50 µM; in experiment [5] (read-out: MIC S. aureus ATCC BAA1717), above 50 µM; in experiment [6] it was above 50 µM. The MIC in [7] was above 50 µM; in experiment [2] (setting [14]), above 100 µM; in experiment [2] (setting [15]) it was 100 µM (≈ 41.9 µg/mL); in experiment [2] (setting [16]) it was above 100 µM; in experiment [8] it was 12.5 µM (≈ 5.23 µg/mL); in experiment [9], 25 µM (≈ 10.5 µg/mL). For the same compound, the MIC in experiment [10] turned out to be 6.25 µM (≈ 2.62 µg/mL); in [11], 12.5 µM (≈ 5.23 µg/mL). The IC50 in experiment [3] and in [4] was above 50 µM in each case.

With `CS(=O)(=O)NCCNC/C=C/c1ccc(-c2cccnc2)cc1` [Compound 36], the MIC in [10] is above 50 µM.

As for `O=C(NCCNC/C=C/c1ccc(-c2cccnc2)cc1)c1cccc2cnccc12` [Compound 37], in experiment [10], the MIC is above 50 µM.

On to `O=C(/C=C/c1ccc(-c2cccnc2)cc1)NCCNS(=O)(=O)c1cccc2cnccc12` [Compound 38], for which, in experiment [10], the MIC was above 50 µM.

`O=S(=O)(NCCNCCCCc1ccc(-c2cccnc2)cc1)c1cccc2cnccc12` [Compound 39] returned an MIC in [10] above 50 µM.

For `Nc1ncccc1-c1ccc(CCC(=O)NCCNS(=O)(=O)c2cccc3cnccc23)cc1` [Compound 40], the MIC in experiment [10] is above 50 µM.

In experiment [10], `Nc1ccc(-c2ccc(CCC(=O)NCCNS(=O)(=O)c3cccc4cnccc34)cc2)cn1` [Compound 41] displayed an MIC above 50 µM.

In the case of `CNC(=O)c1ccc(-c2ccc(CCC(=O)NCCNS(=O)(=O)c3cccc4cnccc34)cc2)cn1` [Compound 42], the MIC in [10] is above 50 µM.

`CNC(=O)c1ncccc1-c1ccc(CCC(=O)NCCNS(=O)(=O)c2cccc3cnccc23)cc1` [Compound 43]: the MIC in [10] was above 50 µM.

For the compound `O=C(CCc1ccc(-c2cnc3[nH]ccc3c2)cc1)NCCNS(=O)(=O)c1cccc2cnccc12` [Compound 44], in experiment [10], the MIC was above 50 µM.

Regarding `O=S(=O)(NCCNCCCc1ccc(-c2cnc3[nH]ccc3c2)cc1)c1cccc2cnccc12` [Compound 45], in [10], the MIC was above 50 µM.

Regarding `O=S(=O)(NCCNC/C=C/c1ccccc1-c1ccc2c(c1)OCO2)c1cccc2cnccc12` [Compound 46], the MIC in experiment [10] is above 50 µM.

Regarding `C[C@@H](O)[C@H]1C(=O)N2C(C(=O)O)=C(SCCN=CN)C[C@H]12` [Imipenem], the MIC is 0.1 µg/mL in experiment [1] (Escherichia coli, W3110); 0.375 µM in experiment [1] (setting [13]); 0.75 µM and 0.2 µg/mL in experiment [2] (setting [14]); 0.375 µM and 0.1 µg/mL in experiment [2] (setting [15]); 0.375 µM and 0.1 µg/mL in experiment [2] (setting [16]).

Consider `C[C@@H](O)[C@H]1C(=O)N2C(C(=O)O)=C(S[C@@H]3CN[C@H](C(=O)N(C)C)C3)[C@H](C)[C@H]12` [Meropenem], for which the MIC in [1] (Escherichia coli, W3110) is 0.02 µg/mL; in experiment [1] (setting [13]) it was 0.05 µM; in experiment [2] (setting [14]) it was 0.09 µM and 0.04 µg/mL; in experiment [2] (setting [15]) it was 0.05 µM and 0.02 µg/mL; in experiment [2] (setting [16]), 0.05 µM and 0.02 µg/mL.

Take `COc1cc(Cc2cnc(N)nc2N)cc(OC)c1OC` [TMP, trimethoprim]: the MIC was 0.16 µg/mL in experiment [1] (Escherichia coli, W3110); 0.375 µM in [1] (setting [13]); 0.375 µM and 0.16 µg/mL in [2] (setting [14]); 0.18 µM and 0.08 µg/mL in experiment [2] (setting [15]); 0.375 µM and 0.16 µg/mL in experiment [2] (setting [16]). For the same compound, the “time kill kinetics, bacterial count” value in experiment [12] (4xMIC, 0.5 h, n = 1 and n = 2) was 5.161 and 5.204; in experiment [12] (4xMIC, 1 h) it was 5.041 and 5.342; in [12] (4xMIC, 2 h) it was 5.322 and 4.954; in experiment [12] (4xMIC, 4 h), 4.255 and 4.204; in experiment [12] (4xMIC, 8 h), 2.845 and 2.602; in [12] (4xMIC, 24 h) it was 2. Besides, the “time kill kinetics, bacterial count” value is 6.217 and 6.23 in experiment [12] (8xMIC, 0.5 h); 4.978 and 5.097 in experiment [12] (8xMIC, 1 h); 5.176 and 4.929 in [12] (8xMIC, 2 h); 3.544 and 3.423 in experiment [12] (8xMIC, 4 h); 2.699 in [12] (8xMIC, 8 h); 2.301 and 2 in experiment [12] (8xMIC, 24 h).

For Colistin, the MIC in experiment [1] (E. coli W3110) is 0.5 µg/mL; in experiment [1] (setting [17]), 0.19 µM; in [2] (E. coli W3110 60-r1), 0.375 µM and 1 µg/mL; in experiment [2] (E. coli W3110 60-r3) it was 0.375 µM and 1 µg/mL; in experiment [2] (E. coli W3110 60-r6), 0.19 µM and 0.5 µg/mL.

Consider Neomycin, for which the MIC in [1] (E. coli W3110) was 1 µg/mL; in experiment [1] (setting [17]), 1.5 µM; in experiment [2] (E. coli W3110 60-r1), 0.75 µM and 0.5 µg/mL; in [2] (E. coli W3110 60-r3), 1.5 µM and 1 µg/mL; in experiment [2] (E. coli W3110 60-r6), 0.75 µM and 0.5 µg/mL.
